Patent US20110045082A1, “AGGLOMERATES BY CRYSTALLISATION” (priority 1999, published 2011)

How the values were obtained:
Type in all cases: physicochemical
[1] = Tapped bulk density of the powder
[2] = Compressibility of the powder
[3] = Average diameter of agglomerates; conditions: agglomerates as obtained after drying
[4] = Loose bulk density of the powder
[5] = Particle size distribution
[6] = Table 1, agglomerated vs needle form
[7] = agitator 3000 RPM, 0.9 mm nozzle
[8] = High flow (solution 15 l/h, acetone 312 l/h)
[9] = Low flow (flows decreased by a factor 2)

## O=C(O)[C@H]1/C(=C/CO)O[C@@H]2CC(=O)N21 [Agglomerates of potassium clavulanate, potassium clavulanate]
[1]; [6]
  Tapped bulk density: 0.68 g/mL
[2]; [6]
  Compressibility: 28%
[3]; listed as Example 8
  average diameter: 40-200 μm
[4]; [6]
  Loose bulk density: 0.49 g/mL

## O=C(O)[C@H]1/C(=C/CO)O[C@@H]2CC(=O)N21 [Example 6, potassium clavulanate]
[3]
  average diameter: 10-200 μm

## O=C(O)[C@H]1/C(=C/CO)O[C@@H]2CC(=O)N21 [Needles of Potassium clavulanate, potassium clavulanate, reference compound]
[1]; [6]
  Tapped bulk density: 0.36 g/mL
[2]; [6]
  Compressibility: 50%
[4]; [6]
  Loose bulk density: 0.18 g/mL

## O=C(O)[C@H]1/C(=C/CO)O[C@@H]2CC(=O)N21 [Example 2, potassium clavulanate]
[3]
  average diameter: 500-1500 μm

## O=C(O)[C@H]1/C(=C/CO)O[C@@H]2CC(=O)N21 [Example 9, potassium clavulanate]
[1]; [7]
  Tapped bulk density: 0.30 g/mL
[2]; [7]
  Compressibility: 27%
[4]; [7]
  Loose bulk density: 0.22 g/mL
[5]; Table 2, 3000 RPM
  particle size distribution 75-150 μm: 43.3 volume %
  particle size distribution 150-250 μm: 8 volume %
  particle size distribution 250-500 μm: 1 volume %
  particle size distribution 500-710 μm: 0.2 volume %
  particle size distribution <75 μm: 46.3 volume %
  particle size distribution >710 μm: 0.1 volume %

## O=C(O)[C@H]1/C(=C/CO)O[C@@H]2CC(=O)N21 [Example 4, potassium clavulanate]
[3]
  average diameter: 500-1000 μm

## potassium clavulanate [Example 12]
[1]; Nozzle diameter 0.9 mm
  Tapped bulk density: 0.3 g/mL
[1]; Nozzle diameter 1.2 mm
  Tapped bulk density: 0.44 g/mL
[4]; Nozzle diameter 0.9 mm
  Loose bulk density: 0.22 g/mL
[4]; Nozzle diameter 1.2 mm
  Loose bulk density: 0.36 g/mL
[5]; Nozzle diameter 0.9 mm
  particle size distribution 75-150 μm: 43.3 volume %
  particle size distribution 150-250 μm: 8 volume %
  particle size distribution 250-500 μm: 1 volume %
  particle size distribution 500-710 μm: 0.2 volume %
  particle size distribution <75 μm: 46.3 volume %
  particle size distribution >710 μm: 0.1 volume %
[5]; Nozzle diameter 1.2 mm
  particle size distribution 75-150 μm: 50.6 volume %
  particle size distribution 150-250 μm: 31.3 volume %
  particle size distribution 250-500 μm: 1.9 volume %
  particle size distribution 500-710 μm: 0 volume %
  particle size distribution <75 μm: 15.9 volume %
  particle size distribution >710 μm: 0.3 volume %

## O=C(O)[C@H]1/C(=C/CO)O[C@@H]2CC(=O)N21 [Example 10, potassium clavulanate]
[1]; agitator speed 1000 RPM
  Tapped bulk density: 0.44 g/mL
[1]; agitator speed 2000 RPM
  Tapped bulk density: 0.47 g/mL
[2]; agitator speed 1000 RPM
  Compressibility: 11%
[2]; agitator speed 2000 RPM
  Compressibility: 11%
[4]; agitator speed 1000 RPM
  Loose bulk density: 0.39 g/mL
[4]; agitator speed 2000 RPM
  Loose bulk density: 0.42 g/mL
[5]; agitator speed 1000 RPM
  particle size distribution 75-150 μm: 6.5 volume %
  particle size distribution 150-250 μm: 20.7 volume %
  particle size distribution 250-500 μm: 60.8 volume %
  particle size distribution 500-710 μm: 6.1 volume %
  particle size distribution <75 μm: 5.1 volume %
  particle size distribution >710 μm: 0.2 volume %
[5]; agitator speed 2000 RPM
  particle size distribution 75-150 μm: 2.4 volume %
  particle size distribution 150-250 μm: 9.5 volume %
  particle size distribution 250-500 μm: 57.3 volume %
  particle size distribution 500-710 μm: 27 volume %
  particle size distribution <75 μm: 1.8 volume %
  particle size distribution >710 μm: 1.5 volume %

## O=C(O)[C@H]1/C(=C/CO)O[C@@H]2CC(=O)N21 [Example 7, potassium clavulanate]
[3]
  average diameter: 500-1500 μm

## O=C(O)[C@H]1/C(=C/CO)O[C@@H]2CC(=O)N21 [Example 3, potassium clavulanate]
[3]
  average diameter: 1000 μm

## O=C(O)[C@H]1/C(=C/CO)O[C@@H]2CC(=O)N21 [Example 11, potassium clavulanate]
[1]; [8]
  Tapped bulk density: 0.36 g/mL
[1]; [9]
  Tapped bulk density: 0.44 g/mL
[2]; [8]
  Compressibility: 25%
[2]; [9]
  Compressibility: 20%
[4]; [8]
  Loose bulk density: 0.27 g/mL
[4]; [9]
  Loose bulk density: 0.35 g/mL
[5]; High flow
  particle size distribution 75-150 μm: 41.2 volume %
  particle size distribution 150-250 μm: 9.3 volume %
  particle size distribution 250-500 μm: 0.3 volume %
  particle size distribution 500-710 μm: 0 volume %
  particle size distribution <75 μm: 48.7 volume %
  particle size distribution >710 μm: 0 volume %
[5]; Low flow
  particle size distribution 75-150 μm: 50.4 volume %
  particle size distribution 150-250 μm: 1.1 volume %
  particle size distribution 250-500 μm: 0.6 volume %
  particle size distribution 500-710 μm: 0.4 volume %
  particle size distribution <75 μm: 48.8 volume %
  particle size distribution >710 μm: 0 volume %

## O=C(O)[C@H]1/C(=C/CO)O[C@@H]2CC(=O)N21 [Example 1, potassium clavulanate]
[3]
  average diameter: 100-1000 μm

## O=C(O)[C@H]1/C(=C/CO)O[C@@H]2CC(=O)N21 [Example 5, potassium clavulanate]
[3]
  average diameter: 50-250 μm
